The text below walks through data of ChEMBL document CHEMBL1201862, “PubChem BioAssay data set” (2004).

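Cultured in 96-well plates, cells were exposed to test compound for 48 hours across five concentrations. Here, GI50 denotes the concentration required for 50% inhibition of growth.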 Calls of active or inactive are those of the source. Cut-off read from the data, not from the text of the source: active = GI50 up to about 1.1 µM and inactive = higher.

Among the test systems are TK-10; UACC-257; OVCAR-5; SNB-19; SK-MEL-2; CCRF-CEM; COLO 205; 786-0; RXF 393; HCT-15; HT-29; MDA-MB-231; NCI/ADR-RES; NCI-H460; HCT-116; Malme-3M; OVCAR-8; EKVX; SK-MEL-5; RPMI-8226.
Common to all, as to test: NCI anticancer screen, dose series, 48 h

Take `Cc1cc(C(=O)CBr)c(CN2C(=O)c3ccccc3C2=O)c(=O)n1C`: the GI50 was 7.43 µM (inactive) with TK-10; 17 µM (inactive) in the test with UACC-257; 24.9 µM (inactive) in the test with OVCAR-5; 33.3 µM (inactive) with SNB-19; 27 µM (inactive) in the test on SK-MEL-2; 2.92 µM (inactive) in the test with CCRF-CEM. The GI50 was 8.43 µM (inactive) with COLO 205; 21.8 µM (inactive) in the test on 786-0; 11 µM (inactive) in the test with RXF 393; 12.6 µM in the test on HCT-15; 14.2 µM (inactive) in the test on HT-29; 18.1 µM (inactive) in the test on MDA-MB-231. Besides, the GI50 in the test on NCI/ADR-RES was 47.8 µM (inactive); in the test with NCI-H460, 26.3 µM (inactive); in the test with HCT-116, 66.1 µM (inactive); with Malme-3M, 19.4 µM (inactive); with OVCAR-8, 18.1 µM (inactive); in the test with EKVX it was 2.21 µM (inactive).

In the case of `C=C1CC(OC(C)=O)/C=C(/C)CCC(C(C)(C)O)CC1O` (stereo not given), the GI50 in the test with TK-10, in the test on UACC-257, with OVCAR-5, in the test with SNB-19, in the test with SK-MEL-2 and in the test on CCRF-CEM was > 100 µM (inactive) each time. The GI50 was > 100 µM (inactive) in the test on COLO 205; > 100 µM (inactive) in the test on 786-0; > 100 µM (inactive) in the test on RXF 393; > 100 µM in the test on HCT-15; > 100 µM (inactive) in the test on SK-MEL-5; > 100 µM (inactive) in the test with HT-29. For the same compound, the GI50 in the test on MDA-MB-231, in the test on NCI/ADR-RES, in the test with NCI-H460, in the test on HCT-116, with Malme-3M and in the test on OVCAR-8 was > 100 µM (inactive) throughout. Further, the GI50 in the test with EKVX was > 100 µM (inactive).

With `O=S1(=O)c2ccccc2NC(=S)CC1c1ccccc1` (stereo not given), the GI50 with TK-10 was > 100 µM (inactive); in the test with UACC-257, 24.8 µM (inactive); in the test on OVCAR-5 it was > 100 µM (inactive); in the test on SNB-19, > 100 µM (inactive); in the test on CCRF-CEM, > 100 µM (inactive); in the test with COLO 205, 36.6 µM (inactive). Besides, the GI50 was > 100 µM (inactive) in the test on 786-0; > 100 µM (inactive) in the test on RPMI-8226; > 100 µM (inactive) in the test on RXF 393; > 100 µM in the test on HCT-15; > 100 µM (inactive) in the test on SK-MEL-5; > 100 µM (inactive) with HT-29. Besides, the GI50 with MDA-MB-231 is > 100 µM (inactive); in the test with NCI/ADR-RES, > 100 µM (inactive); in the test with NCI-H460, > 100 µM (inactive); with HCT-116 it was > 100 µM (inactive); in the test on Malme-3M it was > 100 µM (inactive); in the test on OVCAR-8 it was 72.9 µM (inactive). Further, the GI50 in the test on EKVX is > 100 µM (inactive).

Regarding `N/N=C(\N)Nc1cccc2ccccc12`, the GI50 in the test on TK-10, in the test with UACC-257, in the test on OVCAR-5, in the test with SNB-19, in the test with CCRF-CEM and in the test with COLO 205 was > 100 µM (inactive) each time. The GI50 was > 100 µM (inactive) in the test on 786-0; > 100 µM (inactive) in the test with RPMI-8226; > 100 µM (inactive) with RXF 393; > 100 µM in the test on HCT-15; > 100 µM (inactive) with SK-MEL-5; > 100 µM (inactive) in the test with HT-29. Further, the GI50 in the test on MDA-MB-231, with NCI/ADR-RES, with NCI-H460, with HCT-116, with Malme-3M and in the test on OVCAR-8 was > 100 µM (inactive) each time. The GI50 with EKVX is > 100 µM (inactive).

Turning to `CC1(C)O[C@@H](CP(c2ccccc2)c2ccccc2)[C@H](CP(c2ccccc2)c2ccccc2)O1`, the GI50 in the test with TK-10 was 14.2 µM (inactive); with UACC-257 it was 6.98 µM (inactive); with OVCAR-5, 8.81 µM (inactive); in the test with SNB-19, 4.05 µM (inactive); in the test with CCRF-CEM, 2.4 µM (inactive); with COLO 205, 0.632 µM (active). The GI50 in the test on 786-0 was 6.15 µM (inactive); in the test with RPMI-8226 it was 3.72 µM (inactive); in the test on RXF 393, 8.15 µM (inactive); with HCT-15 it was 12.3 µM; in the test with SK-MEL-5 it was 5.74 µM (inactive); in the test on HT-29, 0.675 µM (active). For the same compound, the GI50 in the test with MDA-MB-231 was 5.85 µM (inactive); in the test with NCI/ADR-RES, 12.4 µM (inactive); in the test with NCI-H460, 4.03 µM (inactive); in the test with HCT-116, 1.84 µM (inactive); in the test with Malme-3M it was 5.83 µM (inactive); in the test on OVCAR-8, 4.06 µM (inactive). Moreover, the GI50 with EKVX is 6.38 µM (inactive).

For the compound `O=C(C(Cl)=C(N1CCOCC1)N1CCOCC1)C(Cl)Cl`, the GI50 in the test on TK-10 is > 100 µM (inactive); with UACC-257, > 100 µM (inactive); in the test with SNB-19, > 100 µM (inactive); in the test on CCRF-CEM, 56.9 µM (inactive); in the test with COLO 205 it was > 100 µM (inactive); in the test with 786-0, > 100 µM (inactive). In addition, the GI50 is > 100 µM (inactive) in the test on RPMI-8226; > 100 µM (inactive) in the test with RXF 393; > 100 µM with HCT-15; > 100 µM (inactive) with SK-MEL-5; > 100 µM (inactive) in the test with HT-29; > 100 µM (inactive) in the test on MDA-MB-231. Also, the GI50 in the test with NCI/ADR-RES, in the test on NCI-H460, in the test on HCT-116, in the test with Malme-3M, in the test with OVCAR-8 and with EKVX was > 100 µM (inactive) in each case.

Turning to `CC(C)=C1C(=O)C[C@]2(C)C[C@H]3O[C@]3(C)CC[C@@H]3O[C@@]3(C)CC[C@@H]12`, the GI50 in the test with TK-10, in the test on UACC-257, with OVCAR-5, with SNB-19, in the test with SK-MEL-2 and with CCRF-CEM was > 50 µM (inactive) in each case. Moreover, the GI50 in the test on COLO 205 was > 50 µM (inactive); in the test with 786-0 it was > 50 µM (inactive); in the test with RPMI-8226, > 50 µM (inactive); with RXF 393, > 50 µM (inactive); with HCT-15 it was > 50 µM; with HT-29 it was > 50 µM (inactive). Also, the GI50 in the test with MDA-MB-231, in the test with NCI/ADR-RES, with NCI-H460, in the test with HCT-116, with OVCAR-8 and in the test with EKVX was > 50 µM (inactive) throughout.

As to `COc1ccc(CNc2nc3ccccc3nc2C(=O)O)cc1`, the GI50 in the test on TK-10 is > 100 µM (inactive); with UACC-257, > 100 µM (inactive); in the test with OVCAR-5, > 100 µM (inactive); in the test on SNB-19, > 100 µM (inactive); in the test with SK-MEL-2 it was > 100 µM (inactive); in the test on CCRF-CEM it was 83.4 µM (inactive). The GI50 with COLO 205 was 71.6 µM (inactive); in the test on 786-0, 57.8 µM (inactive); with RPMI-8226, 21.7 µM (inactive); with RXF 393 it was > 100 µM (inactive); in the test on HCT-15, 23.1 µM; with SK-MEL-5, 52.6 µM (inactive). Besides, the GI50 with HT-29 was > 100 µM (inactive); with MDA-MB-231, > 100 µM (inactive); in the test on NCI/ADR-RES it was 38.9 µM (inactive); in the test with NCI-H460, 55.5 µM (inactive); in the test with HCT-116 it was 51.6 µM (inactive); with OVCAR-8, > 100 µM (inactive). Moreover, in the test with EKVX, the GI50 was 78.2 µM (inactive).

Consider `Cn1c2c(c3ccccc31)CC1c3c(c4ccccc4n3C)CC21` (stereo not given), for which the GI50 in the test on TK-10, in the test on UACC-257, in the test with OVCAR-5, in the test on SNB-19, in the test on CCRF-CEM and in the test on COLO 205 was > 100 µM (inactive) throughout. For the same compound, the GI50 was > 100 µM (inactive) with 786-0; > 100 µM (inactive) in the test with RPMI-8226; > 100 µM (inactive) in the test with RXF 393; > 100 µM with HCT-15; > 100 µM (inactive) in the test on SK-MEL-5; > 100 µM (inactive) in the test with HT-29. The GI50 in the test with MDA-MB-231, in the test with NCI/ADR-RES, in the test on NCI-H460, in the test with Malme-3M, with OVCAR-8 and with EKVX was > 100 µM (inactive) throughout.

Turning to `O=C1C[C@H]2[C@H](c3ccc(Br)cc3)[C@H]3C(=O)c4ccccc4NC(=O)[C@@H]3[C@@]2(O)c2ccccc2N1`, the GI50 in the test on TK-10 was 17.1 µM (inactive); in the test on UACC-257, 20.2 µM (inactive); with OVCAR-5 it was 27.2 µM (inactive); in the test on SNB-19 it was 38.2 µM (inactive); in the test with CCRF-CEM it was 10.6 µM (inactive); in the test with COLO 205, 14.8 µM (inactive). For the same compound, the GI50 with 786-0 was 19.4 µM (inactive); in the test with RPMI-8226 it was 9.82 µM (inactive); with RXF 393, 3.48 µM (inactive); in the test on HCT-15, 27.9 µM; with SK-MEL-5, 19.3 µM (inactive); with HT-29, 10.7 µM (inactive). For the same compound, the GI50 was 14.4 µM (inactive) with MDA-MB-231; 14.9 µM (inactive) in the test with NCI/ADR-RES; 25.5 µM (inactive) in the test with NCI-H460; 12.3 µM (inactive) in the test with HCT-116; 19.7 µM (inactive) in the test with Malme-3M; 19 µM (inactive) in the test with OVCAR-8. In addition, the GI50 in the test with EKVX is 48.6 µM (inactive).

Consider `CSCCCNC(=O)c1csc(-c2csc(CCN)n2)n1`, for which the GI50 with TK-10 was > 100 µM (inactive); in the test on UACC-257, > 100 µM (inactive); with OVCAR-5, 49.4 µM (inactive); in the test on SNB-19 it was > 100 µM (inactive); in the test on CCRF-CEM it was 75.2 µM (inactive); in the test on COLO 205, > 100 µM (inactive). The GI50 in the test on 786-0 is > 100 µM (inactive); with RPMI-8226 it was 44.7 µM (inactive); in the test with RXF 393, > 100 µM (inactive); in the test with HCT-15 it was 54.8 µM; in the test on SK-MEL-5, 93.1 µM (inactive); in the test with HT-29, 82.8 µM (inactive). Also, the GI50 in the test with MDA-MB-231 is 52.5 µM (inactive); with NCI/ADR-RES it was > 100 µM (inactive); in the test on NCI-H460 it was 91 µM (inactive); in the test with HCT-116, 84.5 µM (inactive); in the test with Malme-3M, 43.8 µM (inactive); with OVCAR-8 it was > 100 µM (inactive). The GI50 in the test with EKVX is > 100 µM (inactive).
